Laboratory results from US9133158B2, “Bicyclic dihydroisoquinoline-1-one derivatives” (Hoffmann-La Roche Inc., priority 2011, dated 2015).

What was measured:
human CYP11B2 = molecular target: T1, human CYP11B2 (Homo sapiens, UniProt P19099); test: G-402 cellular enzyme assay, human CYP11B2 (aldosterone release, HTRF); format: cell-based; settings: G-402 cells, 1 μM Deoxycorticosterone
T1 construct: expressed in transfected cells
T1 sequence (P19099 25-503): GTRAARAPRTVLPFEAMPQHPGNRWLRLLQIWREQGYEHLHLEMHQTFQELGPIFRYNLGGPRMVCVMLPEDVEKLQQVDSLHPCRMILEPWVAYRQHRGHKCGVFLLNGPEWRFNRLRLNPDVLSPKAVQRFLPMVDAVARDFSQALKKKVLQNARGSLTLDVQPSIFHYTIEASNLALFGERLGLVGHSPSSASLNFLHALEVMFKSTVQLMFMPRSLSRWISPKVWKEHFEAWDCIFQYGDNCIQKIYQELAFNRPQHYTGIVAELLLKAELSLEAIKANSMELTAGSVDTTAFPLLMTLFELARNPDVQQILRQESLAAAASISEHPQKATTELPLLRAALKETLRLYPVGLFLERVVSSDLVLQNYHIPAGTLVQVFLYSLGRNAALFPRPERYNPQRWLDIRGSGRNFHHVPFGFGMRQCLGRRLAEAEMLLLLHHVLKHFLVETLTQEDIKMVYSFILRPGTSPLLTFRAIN
How it was run: (§1)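 Cellular format in stably transfected G-402 cells over 16 h. HTRF quantified aldosterone (CYP11B2, 1 μM deoxycorticosterone substrate) or cortisol (CYP11B1, 1 μM deoxycortisol substrate); EC50 obtained by fitting a 4-parameter sigmoid to dose–response data.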

human CYP11B1 = molecular target: T2, human CYP11B1 (Homo sapiens, UniProt P15538); test: G-402 cellular enzyme assay, human CYP11B1 (cortisol release, HTRF); format: cell-based; settings: G-402 cells, 1 μM Deoxycortisol
T2 construct: expressed in transfected cells
T2 sequence (P15538 25-503): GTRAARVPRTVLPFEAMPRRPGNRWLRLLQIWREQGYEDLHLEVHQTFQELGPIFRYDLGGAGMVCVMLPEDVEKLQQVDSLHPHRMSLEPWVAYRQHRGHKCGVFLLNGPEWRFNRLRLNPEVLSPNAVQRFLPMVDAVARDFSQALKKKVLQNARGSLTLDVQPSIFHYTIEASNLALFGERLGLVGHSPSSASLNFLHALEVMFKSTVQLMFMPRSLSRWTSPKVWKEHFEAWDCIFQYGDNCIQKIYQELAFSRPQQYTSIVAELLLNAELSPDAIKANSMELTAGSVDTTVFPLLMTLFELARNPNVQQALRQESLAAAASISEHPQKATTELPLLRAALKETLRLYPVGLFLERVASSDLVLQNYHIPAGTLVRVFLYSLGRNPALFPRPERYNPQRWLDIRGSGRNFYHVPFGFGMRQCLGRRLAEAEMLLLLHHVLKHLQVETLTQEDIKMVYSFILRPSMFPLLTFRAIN
How it was run: as §1

Compound	EC50 (human CYP11B2) [nM]	EC50 (human CYP11B1) [nM]
CCC(=O)N[C@@H]1CCCc2c1cncc2N1C(=O)c2ccc(Cl)cc2[C@@H]1CC (single isomer, unassigned) [Example 353, N-[(R or S)-4-((S or R)-5-Chloro-3-ethyl-1-oxo-1,3-dihydro-isoindol-2-yl)-5,6,7,8-tetrahydro-isoquinolin-8-yl]-propionamide]	396	16200
O=C(Nc1cncc(N2CCc3cc(Cl)ccc3C2=O)c1)NC1CCCCC1 [Example 250, 1-[5-(6-Chloro-1-oxo-3,4-dihydro-1H-isoquinolin-2-yl)-pyridin-3-yl]-3-cyclohexyl-urea]	4440	12300
CNC(=O)COc1cncc(N2CCc3cc(Cl)ccc3C2=O)c1 [Example 254, 2-[5-(6-Chloro-1-oxo-3,4-dihydro-1H-isoquinolin-2-yl)-pyridin-3-yloxy]-N-methyl-acetamide]	2130	32500
Cc1cnn(Cc2cncc(N3CCc4cc(Cl)ccc4C3=O)c2)c1 [Example 187, 6-Chloro-2-[5-(4-methyl-pyrazol-1-ylmethyl)-pyridin-3-yl]-3,4-dihydro-2H-isoquinolin-1-one]	137	2230
CC(=O)NC1CCCc2c1cncc2N1Cc2cc(Cl)ccc2C1=O (single isomer, unassigned) [Example 322, N-[(S or R)-4-(5-Chloro-1-oxo-1,3-dihydro-isoindol-2-yl)-5,6,7,8-tetrahydro-isoquinolin-8-yl]-acetamide]	5140	39600
CCOc1ccc2c(n1)C(C)(C)N(c1cncc(F)c1)C2=O [Example 299, 2-Ethoxy-6-(5-fluoro-pyridin-3-yl)-7,7-dimethyl-6,7-dihydro-pyrrolo[3,4-b]pyridin-5-one]	787	48500
COc1ccc2c(n1)C(C)(C)N(c1cncc(-c3ccnn3C)c1)C2=O [Example 426, 2-Methoxy-7,7-dimethyl-6-[5-(2-methyl-2H-pyrazol-3-yl)-pyridin-3-yl]-6,7-dihydro-pyrrolo[3,4-b]pyridin-5-one]	12.1	572
CC(=O)N[C@H]1CCCc2c1cncc2N1C(=O)c2ccc(Cl)cc2[C@H]1C (single isomer, unassigned) [Example 363, N-[(S or R)-4-((R or S)-5-Chloro-3-methyl-1-oxo-1,3-dihydro-isoindol-2-yl)-5,6,7,8-tetrahydro-isoquinolin-8-yl]-acetamide]	171	2330
O=C1c2ccc(Cl)cc2CCN1c1cncc(Cn2cccn2)c1 [Example 160, 6-Chloro-2-(5-pyrazol-1-ylmethyl-pyridin-3-yl)-3,4-dihydro-2H-isoquinolin-1-one]	36.1	418
CC(C)Oc1cncc(N2CCc3cc(Cl)ccc3C2=O)c1 [Example 11, 6-Chloro-2-(5-isopropoxy-pyridin-3-yl)-3,4-dihydro-2H-isoquinolin-1-one]	12.7	257
Nc1ccn(Cc2cncc(N3CCc4cc(Cl)ccc4C3=O)c2)n1 [Example 382, 2-[5-(3-Amino-pyrazol-1-ylmethyl)-pyridin-3-yl]-6-chloro-3,4-dihydro-2H-isoquinolin-1-one]	33.9	1520
Cn1cnnc1Cc1cncc(N2CCc3cc(Cl)ccc3C2=O)c1 [Example 268, 6-Chloro-2-[5-(4-methyl-4H-[1,2,4]-triazol-3-ylmethyl)-pyridin-3-yl]-3,4-dihydro-2H-isoquinolin-1-one]	1650	14200
CCS(=O)(=O)NCc1cncc(N2C(=O)c3ccc(Cl)cc3C2(C)C)c1 [Example 387, Ethanesulfonic acid [5-(6-chloro-1,1-dimethyl-3-oxo-1,3-dihydro-isoindol-2-yl)-pyridin-3-ylmethyl]-amide]	92.2	2840
CC[C@@H]1c2cc(Cl)ccc2C(=O)N1c1cncc2c1CCC[C@@H]2NS(C)(=O)=O (single isomer, unassigned) [Example 349, N-[(S or R)-4-((R or S)-5-Chloro-3-ethyl-1-oxo-1,3-dihydro-isoindol-2-yl)-5,6,7,8-tetrahydro-isoquinolin-8-yl]-methanesulfonamide]	982	15100
COc1ccc2c(n1)CCN(c1cccnc1)C2=O [Example 98, 2-Methoxy-6-pyridin-3-yl-7,8-dihydro-6H-[1,6]naphthyridin-5-one]	227	6830
Cn1nccc1CNc1cncc(N2CCc3cc(Cl)ccc3C2=O)c1 [Example 226, 6-Chloro-2-{5-[(2-methyl-2H-pyrazol-3-ylmethyl)-amino]-pyridin-3-yl}-3,4-dihydro-2H-isoquinolin-1-one]	53.4	3400
CCC1c2cc(Cl)ccc2C(=O)N1c1cncc(F)c1 (single isomer, unassigned) [Example 309, (R or S)-5-Chloro-3-ethyl-2-(5-fluoro-pyridin-3-yl)-2,3-dihydro-isoindol-1-one]	16	2450
NCc1cncc(N2CCc3cc(Cl)ccc3C2=O)c1 [Example 192, 2-(5-Aminomethyl-pyridin-3-yl)-6-chloro-3,4-dihydro-2H-isoquinolin-1-one]	2200	10300
O=C1c2ccc(Cl)cc2CN1c1cncc(N2CCC[C@H]2CO)c1 [Example 136, 5-Chloro-2-[5-((S)-2-hydroxymethyl-pyrrolidin-1-yl)-pyridin-3-yl]-2,3-dihydro-isoindol-1-one]	102	2660
O=C1c2ccc(Cl)cc2CCN1c1cncc(OC(F)F)c1 [Example 60, 6-Chloro-2-(5-difluoromethoxy-pyridin-3-yl)-3,4-dihydro-2H-isoquinolin-1-one]	70.7	794
Cc1cnn(C)c1-c1cncc(N2CCc3cc(Cl)ccc3C2=O)c1 [Example 245, 6-Chloro-2-[5-(2,4-dimethyl-2H-pyrazol-3-yl)-pyridin-3-yl]-3,4-dihydro-2H-isoquinolin 1-one]	1.1	25.7
COc1cncc(N2CCc3cc(Cl)ccc3C2=O)c1 [Example 10, 6-Chloro-2-(5-methoxy-pyridin-3-yl)-3,4-dihydro-2H-isoquinolin-1-one]	26	822
O=C1c2ccc(Cl)cc2CCN1c1cncc(CN2CCC(F)(F)CC2)c1 [Example 168, 6-Chloro-2-[5-(4,4-difluoro-piperidin-1-ylmethyl)-pyridin-3-yl]-3,4-dihydro-2H-isoquinolin-1-one]	3.4	47.5
CCC(=O)N[C@@H]1CCc2c1cncc2N1C(=O)c2ccc(Cl)cc2[C@H]1C (single isomer, unassigned) [Example 376, N-[(R or S)-4-((R or S)-5-Chloro-3-methyl-1-oxo-1,3-dihydro-isoindol-2-yl)-6,7-dihydro-5H-[2]pyrindin-7-yl]-propionamide]	26	7960
Cn1nccc1Cc1cncc(N2CCc3cc(Cl)ccc3C2=O)c1 [Example 208, 6-Chloro-2-[5-(2-methyl-2H-pyrazol-3-ylmethyl)-pyridin-3-yl]-3,4-dihydro-2H-isoquinolin-1-one]	2.1	18.9
CC(=O)N1CC[C@H](Oc2cncc(N3C(=O)c4ccc(Cl)cc4C3(C)C)c2)C1 [Example 443, 2-[5-((S)-1-Acetyl-pyrrolidin-3-yloxy)-pyridin-3-yl]-5-chloro-3,3-dimethyl-2,3-dihydro-isoindol-1-one]	9	1170
CCC(=O)NCc1cncc(N2C(=O)c3ccc(Cl)cc3C23CC3)c1 [Example 396, N-{[5-(6′-Chloro-3′-oxospiro [cyclopropane-1,1′-isoindol]-2′(3′H)-yl)pyridin-3-yl]methyl} propanamide]	207	5250
CC(O)c1cncc(N2CCc3cc(Cl)ccc3C2=O)c1 (stereo not shown) [Example 13, 6-Chloro-2-[5-(1-hydroxy-ethyl)-pyridin-3-yl]-3,4-dihydro-2H-isoquinolin-1-one]	54.3	865
CC1(C)c2cc(Cl)ccc2C(=O)N1c1cncc(CN2CCCS2(=O)=O)c1 [Example 409, 5-Chloro-2-[5-(1,1-dioxo-1λ6-isothiazolidin-2-ylmethyl)-pyridin-3-yl]-3,3-dimethyl-2,3-dihydro-isoindol-1-one]	6.9	429
